Source: patent US20250092014A1, “COMPOUNDS AND METHODS OF ACTIVATING LIPOPROTEIN LIPASE” (Metrea Biosciences, Inc., priority 2021, published 2025)
pEC50: −log10 of the molar value. Where a name gives a salt, the structure may show the parent alone.

The compounds below were run against T1, LPL:sGPIHBP1 complex (Homo sapiens, UniProt P06858) (assay: RB assay (LPL:sGPIHBP1 pre-incubated with ANGPTL4, RB substrate)). Conditions: read-out: RB qAC50.
T1 sequence (P06858 28-475): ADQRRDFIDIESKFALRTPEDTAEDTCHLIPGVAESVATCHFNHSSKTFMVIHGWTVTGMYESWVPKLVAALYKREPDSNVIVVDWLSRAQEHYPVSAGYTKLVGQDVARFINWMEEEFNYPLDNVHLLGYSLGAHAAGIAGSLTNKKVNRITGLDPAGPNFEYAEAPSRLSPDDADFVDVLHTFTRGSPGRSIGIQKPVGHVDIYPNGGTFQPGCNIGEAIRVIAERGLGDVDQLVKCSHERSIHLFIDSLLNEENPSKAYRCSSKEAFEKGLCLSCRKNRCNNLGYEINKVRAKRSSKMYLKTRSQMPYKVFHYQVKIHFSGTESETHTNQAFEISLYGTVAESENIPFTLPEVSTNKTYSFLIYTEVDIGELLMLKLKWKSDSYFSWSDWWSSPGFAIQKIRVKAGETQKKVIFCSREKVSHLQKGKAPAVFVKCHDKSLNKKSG
T1 sequence (Q8IV16 21-151 partner limits assumed): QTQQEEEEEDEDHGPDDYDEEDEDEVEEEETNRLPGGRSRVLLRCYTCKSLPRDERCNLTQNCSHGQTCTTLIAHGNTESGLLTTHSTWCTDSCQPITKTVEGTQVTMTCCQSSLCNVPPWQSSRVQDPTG
Type: biochemical
Protocol: The assay was performed in black 1536-well plates using purified proteins. To identify compounds that stimulate LPL activity either by directly activating LPL or by inhibiting the antagonist ANGPTL4, the LPL:sGPIHBP1 complex was pre-incubated with ANGPTL4 to decrease LPL activity by 80%. After a 60 min pre-incubation, the reaction was started by adding the RB substrate. 30 min after RB addition, the enzymatic reaction was stopped using SDS. Fluorescence intensity was measured 2 h after stopping the reaction.
20 or 40 nl of compound solution in 100% DMSO were placed in test plate. Then was added LPL:sGPIHBP1 to all wells (diluted in assay buffer to 5 nM; 2 μl/well). This was followed by an addition of ANGPTL4 to compounds and neutral controls (diluted in assay buffer to 20 nM; 1 μl/well). A buffer solution was added to the stimulator control (1 μl/well). The plates were then centrifuged and pre-incubated for 60 min at RT. The reaction was started by adding substrate to all wells (diluted in assay buffer to 40 μM, 1 μl/well). The plated were centrifuged (800 rpm for 1 min) and incubated 30 min at RT (=reaction time). The reaction was stopped by adding SDS to all wells (diluted in water to 2.5%, 2 μl/well); incubated 2 h at RT. The fluorescence intensity (ex 540 nm/em 590 nm) was measured on a Pherastar (BMG) using 5 flashes.

Structure (SMILES)	pEC50
O=C(O)Cc1cc(F)ccc1NC(=O)c1ccc(N2CCCC(F)(F)C2)c(NC(=O)c2nn(CC(F)(F)F)c3ccccc23)c1 [Example 62]	< 5.15
O=C(O)Cc1cc(F)ccc1NC(=O)c1ccc(N2CCC3(CC3)C2)c(NC(=O)c2nn(CC(F)(F)F)c3ccccc23)c1 [Example 53]	5.17
O=C(O)Cc1cc(F)ccc1NC(=O)c1ccc(N2CCCCC2)c(NC(=O)c2nn(CC(F)(F)F)c3cccnc23)c1 [Compound 111, 2-(5-fluoro-2-(4-(piperidin-1-yl)-3-(1-(2,2,2-trifluoroethyl)-1H-pyrazolo[4,3-b]pyridine-3-carboxamido)benzamido)phenyl)acetic acid]	4.64
O=C(O)Cc1cc(F)ccc1NC(=O)c1ccc(N2CCOC2=O)c(NC(=O)c2nn(CC(F)(F)F)c3ccccc23)c1 [Example 60]	< 4.60
O=C(O)Cc1cc(F)ccc1NC(=O)c1ccc(N2CCCCC2)c(NC(=O)c2nn(CC(F)(F)F)c3c2CCC3)c1 [Compound 145, 2-(5-fluoro-2-(4-(piperidin-1-yl)-3-(1-(2,2,2-trifluoroethyl)-1,4,5,6-tetrahydrocyclopenta[c]pyrazole-3-carboxamido)benzamido)phenyl)acetic acid]	4.82
O=C(O)Cc1cc(F)ccc1NC(=O)c1ccc(N2CC3CC3C2)c(NC(=O)c2nn(CC(F)(F)F)c3ccccc23)c1 (centres unmarked) [Example 52]	5.30
Cc1c(C(=O)Nc2ccc(F)cc2CC(=O)O)ccc(N2CCCCC2)c1NC(=O)c1nn(CC(F)(F)F)c2ccccc12 [Compound 42, 2-(5-fluoro-2-(2-methyl-4-(piperidin-1-yl)-3-(1-(2,2,2-trifluoroethyl)-1H-indazole-3-carboxamido)benzamido)phenyl)acetic acid]	< 4.60
O=C(O)Cc1cc(F)ccc1NC(=O)c1ccc(N2CCS(=O)(=O)CC2)c(NC(=O)c2nn(CC(F)(F)F)c3ccccc23)c1 [Example 66]	< 4.60
O=C(O)Cc1cc(F)ccc1NC(=O)c1ccc(N2CCCCC2)c(NC(=O)c2cn(CC(F)(F)F)c3ccccc23)c1 [Compound 128, 2-(5-fluoro-2-(4-(piperidin-1-yl)-3-(1-(2,2,2-trifluoroethyl)-1H-indole-3-carboxamido)benzamido)phenyl)acetic acid]	6.18
CN1CCN(c2ccc(C(=O)Nc3ccc(F)cc3CC(=O)O)cc2NC(=O)c2nn(CC(F)(F)F)c3ccccc23)CC1 [Example 57]	< 5.15
O=C(O)Cc1cc(F)ccc1NC(=O)c1ccc(N2CCC(F)(F)CC2)c(NC(=O)c2nn(CC(F)(F)F)c3ccccc23)c1 [Example 40]	5.46
CC1CC(C)CN(c2ccc(C(=O)Nc3ccc(F)cc3CC(=O)O)cc2NC(=O)c2nn(CC(F)(F)F)c3ccccc23)C1 (centres unmarked) [Example 74]	< 5.15
O=C(O)Cc1cc(F)ccc1NC(=O)c1ccc(N2CCOCC2)c(NC(=O)c2nn(CC(F)(F)F)c3ccccc23)c1 [Example 56]	4.82
O=C(O)Cc1ccccc1C(=O)Nc1ccc(N2CCCCC2)c(C(=O)Nc2nn(CC(F)(F)F)c3ccccc23)c1 [Compound 51, 2-(2-((4-(piperidin-1-yl)-3-((1-(2,2,2-trifluoroethyl)-1H-indazol-3-yl)carbamoyl)phenyl)carbamoyl)phenyl)acetic acid]	5.39
O=C(O)Cc1cccc(F)c1NC(=O)c1ccc(N2CCCCC2)c(NC(=O)c2nn(CC(F)(F)F)c3ccccc23)c1 [Compound 24, 2-(3-fluoro-2-(4-(piperidin-1-yl)-3-(1-(2,2,2-trifluoroethyl)-1H-indazole-3-carboxamido)benzamido)phenyl)acetic acid]	5.49
O=C(O)Cc1cc(F)ccc1NC(=O)c1ccc(N2CCC2)c(NC(=O)c2nn(CC(F)(F)F)c3ccccc23)c1 [Compound 39, 2-(2-(4-(azetidin-1-yl)-3-(1-(2,2,2-trifluoroethyl)-1H-indazole-3-carboxamido)benzamido)-5-fluorophenyl)acetic acid]	< 4.60
O=C(O)Cc1cc(F)ccc1NC(=O)c1ccc(N2CC3CCC2C3)c(NC(=O)c2nn(CC(F)(F)F)c3ccccc23)c1 (racemic) [Example 58]	4.74

Now from value to compound:

pEC50	Structure (SMILES)
< 5.15	O=C(O)Cc1cc(F)ccc1NC(=O)c1ccc(N2CCCCC2)c(NC(=O)c2nn(CC3CCOC3)c3ccccc23)c1 (centres unmarked) [Compound 118, 2-(5-fluoro-2-(4-(piperidin-1-yl)-3-(1-((tetrahydrofuran-3-yl)methyl)-1H-indazole-3-carboxamido)benzamido)phenyl)acetic acid]
< 4.60	O=C(O)Cc1cc(F)ccc1NC(=O)c1ccc(N2CCCCC2)c(NC(=O)c2nn(C[C@@H]3CCCO3)c3ccccc23)c1 [Compound 136, (S)-2-(5-fluoro-2-(4-(piperidin-1-yl)-3-(1-((tetrahydrofuran-2-yl)methyl)-1H-indazole-3-carboxamido)benzamido)phenyl)acetic acid]
5.34	O=C(O)Cc1cc(Cl)ccc1NC(=O)c1ccc(N2CCCCC2)c(NC(=O)c2nn(CC(F)(F)F)c3ccccc23)c1 [Compound 23, 2-(5-chloro-2-(4-(piperidin-1-yl)-3-(1-(2,2,2-trifluoroethyl)-1H-indazole-3-carboxamido)benzamido)phenyl)acetic acid]
5.32	O=C(O)Cc1cc(F)ccc1NC(=O)c1ccc(N2CCCCC2)c(NC(=O)c2nn(CC(F)(F)F)c3ccc(F)cc23)c1 [Compound 138, 2-(5-fluoro-2-(3-(5-fluoro-1-(2,2,2-trifluoroethyl)-1H-indazole-3-carboxamido)-4-(piperidin-1-yl)benzamido)phenyl)acetic acid]
5.38	O=C(O)Cc1cc(F)ccc1NC(=O)c1ccc(N2CCCCC2)c(NC(=O)c2nn(CCC(F)(F)F)c3ccccc23)c1 [Compound 121, 2-(5-fluoro-2-(4-(piperidin-1-yl)-3-(1-(3,3,3-trifluoropropyl)-1H-indazole-3-carboxamido)benzamido)phenyl)acetic acid]
4.92	O=C(O)Cc1cc(F)ccc1NC(=O)c1ccc(N2CCCCC2)c(NC(=O)c2c3ccccc3nn2CC(F)(F)F)c1 [Compound 135, 2-(5-fluoro-2-(4-(piperidin-1-yl)-3-(2-(2,2,2-trifluoroethyl)-2H-indazole-3-carboxamido)benzamido)phenyl)acetic acid hydrochloride]
5.51	CC#CCn1nc(C(=O)Nc2cc(C(=O)Nc3ccc(F)cc3CC(=O)O)ccc2N2CCCCC2)c2ccccc21 [Compound 123, 2-(2-(3-(1-(but-2-yn-1-yl)-1H-indazole-3-carboxamido)-4-(piperidin-1-yl)benzamido)-5-fluorophenyl)acetic acid]
< 4.60	O=C(O)Cc1cc(F)ccc1NC(=O)c1ccc(N2CCCCC2)c(NC(=O)c2nn(CCN3CCCC3)c3ccccc23)c1 [Compound 101, 2-(5-fluoro-2-(4-(piperidin-1-yl)-3-(1-(2-(pyrrolidin-1-yl)ethyl)-1H-indazole-3-carboxamido)benzamido)phenyl)acetic acid]
5.11	CC(C)(O)Cn1nc(C(=O)Nc2cc(C(=O)Nc3ccc(F)cc3CC(=O)O)ccc2N2CCCCC2)c2ccccc21 [Compound 106, 2-(5-fluoro-2-(3-(1-(2-hydroxy-2-methylpropyl)-1H-indazole-3-carboxamido)-4-(piperidin-1-yl)benzamido)phenyl)acetic acid]
5.30	Cc1ccc2c(C(=O)Nc3cc(C(=O)Nc4ccc(F)cc4CC(=O)O)ccc3N3CCCCC3)nn(CC(F)(F)F)c2c1 [Compound 143, 2-(5-fluoro-2-(3-(6-methyl-1-(2,2,2-trifluoroethyl)-1H-indazole-3-carboxamido)-4-(piperidin-1-yl)benzamido)phenyl)acetic acid]
< 4.60	Cc1cccc2c1c(C(=O)Nc1cc(C(=O)Nc3ccc(F)cc3CC(=O)O)ccc1N1CCCCC1)nn2CC(F)(F)F [Compound 141, 2-(5-fluoro-2-(3-(4-methyl-1-(2,2,2-trifluoroethyl)-1H-indazole-3-carboxamido)-4-(piperidin-1-yl)benzamido)phenyl)acetic acid]
5.23	O=C(O)Cc1cc(F)ccc1NC(=O)c1ccc(N2CCCCC2)c(NC(=O)c2nn(CC3CC3)c3ccccc23)c1 [Compound 94, 2-(2-(3-(1-(cyclopropylmethyl)-1H-indazole-3-carboxamido)-4-(piperidin-1-yl)benzamido)-5-fluorophenyl)acetic acid]
